Source: ChEMBL document CHEMBL1134804, “Studies leading to the identification of ZD1839 (IRESSA): an orally active, selective epidermal growth factor receptor tyrosine kinase inhibitor targeted to the treatment of cancer” (Bioorg Med Chem Lett, 2001)

Tests used:
KB 3-1 = test: cells; conditions: Homo sapiens
Description: In vitro inhibitory activity against EGF-stimulated proliferation of KB2 cells in culture

in vivo = conditions: mouse, po, 200 mg/kg
[1] = target: Epidermal growth factor receptor (Homo sapiens, UniProt P00533);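 further: tyrosine kinase inhibition of EGFR isolated from A431 vulval squamous carcinoma cells, measured in vitro with a TKI assay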
Epidermal growth factor receptor, sequence (P00533 whole entry): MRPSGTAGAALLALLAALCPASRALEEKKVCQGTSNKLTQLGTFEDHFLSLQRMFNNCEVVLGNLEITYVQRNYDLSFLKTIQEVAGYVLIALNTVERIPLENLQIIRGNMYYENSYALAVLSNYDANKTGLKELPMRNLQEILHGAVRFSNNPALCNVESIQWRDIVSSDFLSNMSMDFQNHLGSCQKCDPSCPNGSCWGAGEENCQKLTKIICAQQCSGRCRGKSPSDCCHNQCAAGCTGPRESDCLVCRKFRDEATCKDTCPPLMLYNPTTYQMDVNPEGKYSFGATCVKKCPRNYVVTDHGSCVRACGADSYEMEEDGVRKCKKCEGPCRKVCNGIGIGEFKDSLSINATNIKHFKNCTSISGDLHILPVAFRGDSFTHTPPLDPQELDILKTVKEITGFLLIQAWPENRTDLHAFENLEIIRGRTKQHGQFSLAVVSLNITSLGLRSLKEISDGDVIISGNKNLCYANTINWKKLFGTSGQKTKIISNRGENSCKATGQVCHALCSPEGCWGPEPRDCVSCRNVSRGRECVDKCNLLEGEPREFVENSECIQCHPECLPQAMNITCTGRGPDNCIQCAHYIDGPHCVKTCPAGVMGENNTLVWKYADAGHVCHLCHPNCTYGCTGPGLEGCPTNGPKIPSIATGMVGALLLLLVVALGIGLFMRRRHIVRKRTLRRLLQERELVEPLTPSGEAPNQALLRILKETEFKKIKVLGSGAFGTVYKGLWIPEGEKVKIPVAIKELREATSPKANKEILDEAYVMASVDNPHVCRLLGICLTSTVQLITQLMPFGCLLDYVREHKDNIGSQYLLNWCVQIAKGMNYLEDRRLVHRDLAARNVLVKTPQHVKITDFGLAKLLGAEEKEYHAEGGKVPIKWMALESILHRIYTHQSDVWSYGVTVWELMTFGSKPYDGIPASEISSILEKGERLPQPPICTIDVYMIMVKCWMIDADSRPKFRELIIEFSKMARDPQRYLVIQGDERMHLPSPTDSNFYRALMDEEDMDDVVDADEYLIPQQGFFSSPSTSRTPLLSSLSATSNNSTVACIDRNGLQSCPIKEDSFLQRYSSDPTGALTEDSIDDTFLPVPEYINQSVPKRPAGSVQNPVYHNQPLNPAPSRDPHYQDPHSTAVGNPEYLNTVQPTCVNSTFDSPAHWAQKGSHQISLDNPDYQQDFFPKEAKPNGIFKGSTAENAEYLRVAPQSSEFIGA
Description: In vitro inhibitory activity against Epidermal growth factor receptor (EGFR-TK) from A431 vulval squamous carcinoma cells using TKI assay

Structure (SMILES) | IC50 (KB 3-1) | concentration at 6 h (in vivo) | IC50 [1]
COc1cc2ncnc(Nc3ccc(F)c(Cl)c3)c2cc1OCCN1CCOCC1 | 380 nM | 156 µM | 
COc1cc2ncnc(Nc3ccc(F)c(Cl)c3)c2cc1OC[C@@H](O)CN1CCOCC1 | 160 nM | 23 µM | 95 nM
COc1cc2ncnc(Nc3ccc(F)c(Cl)c3)c2cc1OC[C@H](O)CN1CCOCC1 | 130 nM | 15 µM | 67 nM
COc1cc2ncnc(Nc3ccc(F)c(Cl)c3)c2cc1OCCCN1CCCCC1 |  | 5.2 µM | 
CCN(CC)CCOc1cc2c(Nc3ccc(F)c(Cl)c3)ncnc2cc1OC | 310 nM | 2.8 µM | 93 nM
CNCCOc1cc2c(Nc3ccc(F)c(Cl)c3)ncnc2cc1OC | 350 nM | 1.6 µM | 8 nM
COc1cc2ncnc(Nc3ccc(F)c(Cl)c3)c2cc1OCCn1ccnc1 |  | 164 µM | 
COCCN(CCOC)CCOc1cc2c(Nc3ccc(F)c(Cl)c3)ncnc2cc1OC | 170 nM | 7.2 µM | 61 nM
COc1cc2ncnc(Nc3ccc(F)c(Cl)c3)c2cc1OCCCN1CCCC1 |  | 8.8 µM | 
COc1cc2ncnc(Nc3ccc(F)c(Cl)c3)c2cc1OCC(O)CN(CCO)CCO (stereo not drawn) | 850 nM | 0.2 µM | 5 nM
COc1cc2ncnc(Nc3ccc(F)c(Cl)c3)c2cc1OCCN1CCN(C)CC1 | 90 nM | 7.1 µM | 
COc1cc2ncnc(Nc3ccc(F)c(Cl)c3)c2cc1OC |  | 16 µM | 
CCN(CC)CCCOc1cc2c(Nc3ccc(F)c(Cl)c3)ncnc2cc1OC |  | 5.4 µM | 
COc1cc2ncnc(Nc3ccc(F)c(Cl)c3)c2cc1OCCNC(C)C | 220 nM | 0.4 µM | 310 nM
COc1cc2ncnc(Nc3ccc(F)c(Cl)c3)c2cc1OCCNC(C)(CO)CO | 910 nM | 0.1 µM | 69 nM
COc1cc2ncnc(Nc3ccc(F)c(Cl)c3)c2cc1OCCN1CCCCC1 |  | 16 µM | 
CNCC(O)COc1cc2c(Nc3ccc(F)c(Cl)c3)ncnc2cc1OC (stereo not drawn) | 220 nM |  | 5 nM
COc1cc2ncnc(Nc3ccc(F)c(Cl)c3)c2cc1OCC(O)CN (stereo not drawn) |  | 0.1 µM | 
COc1cc2ncnc(Nc3ccc(F)c(Cl)c3)c2cc1OCCN(CCO)CCO | 460 nM | 1 µM | 35 nM
COc1cc2ncnc(Nc3cccc(C)c3)c2cc1OC | 50 nM |  | 
COCCNCCOc1cc2c(Nc3ccc(F)c(Cl)c3)ncnc2cc1OC | 180 nM | 11 µM | 8 nM
COc1cc2ncnc(Nc3ccc(F)c(Cl)c3)c2cc1OCCNCCN(C)C | 150 nM | 1.1 µM | 2 nM
COc1cc2ncnc(Nc3ccc(F)c(Cl)c3)c2cc1OCCN1CCCC1 |  | 8.2 µM | 
COc1cc2ncnc(Nc3ccc(F)c(Cl)c3)c2cc1OCCN(C)C | 120 nM | 52 µM | 7 nM
COc1cc2ncnc(Nc3ccc(F)c(Cl)c3)c2cc1OCCNC(C)(C)C | 320 nM | 0.1 µM | 100 nM
COc1cc2ncnc(Nc3ccc(F)c(Cl)c3)c2cc1OCCCN(C)C |  | 34 µM | 
COc1cc2ncnc(Nc3ccc(F)c(Cl)c3)c2cc1OCC(O)Cn1ccnc1 (stereo not drawn) | 380 nM | 0.04 µM | 8 nM
